Experimental data reported in US6723699B1, “Treating disorders by application of insulin-like growth factors and analogs” (Cephalon, Inc., priority 1989, dated 2004).

How the values were obtained:
[1] = system: 14-day embryonic rat spinal cord neurons; assay: Choline acetyltransferase activity in dissociated embryonic rat spinal cord neuron cultures; type: cell-based; details: 48 hr incubation
Method: The activity of IGF-I, IGF-II, or synthetic peptide derivatives of these molecules was assayed on dissociated cultures of 14-day embryonic rat spinal cord neurons. The spinal cord neurons were obtained from trypsin-dissociated spinal cords, plated, incubated with peptides, and subsequently (48 hr later) assayed for choline acetyltransferase activity as described by […] et al., Dev. Biol. 125:311-320 (1988).

[2] = system: 125I-[Threonine59]IGF-I binding to brain tissue sections; assay: 125I-[Threonine59]IGF-I binding displacement on rat brain tissue sections
Method: Brains were removed intact from adult Sprague-Dawley rats, frozen on powdered dry ice, and cut into 20 μm sections (at the level of the cerebellum and brain stem) which were
thaw-mounted onto gelatin-coated glass microscope slides (Herkenham and Pert, J. Neurosci. 2:1129-1149 (1982)). Using a modification of the method of Bohannon et al. (1986), the tissue sections were covered with 250 μl of HEPES assay buffer (see Example 1) containing 0.01 nM ^125I-[Threonine^59]IGF-I alone or in combination with unlabeled IGF-I, IGF-II, or synthetic peptide fragments thereof. The sections were incubated at 4° C. for 24 hours and then rinsed in three 1-minute changes (200 ml each) of ice-cold HEPES assay buffer. The tissue sections were then wiped off the slides with filter paper, and the tissue-bound radioactivity was measured in a Beckman Model 5500B Gamma Counter.

[3] = system: brain ornithine decarboxylase; assay: Induction of brain ornithine decarboxylase after intracerebral injection, 4 day old rats; type: in vivo, rat; details: 6 hours
Method: The in vivo activity of IGF-I, IGF-II or synthetic peptide derivatives of these molecules was tested using a biochemical marker for CNS neurotrophic activity, the induction of brain ornithine decarboxylase. The induction (i.e. increased activity) of ornithine decarboxylase has been reported to be a general marker for the actions of a variety of trophic factors. (Schwartz et al., Dev. Brain Res. 1:403-413 (1981); Kanje et al., Brain Res. 381:24-28 (1986); Russell et al., Life Sci. 19:1297-1306 (1976); MacDonnell et al. Proc. Natl. Acad. Sci. USA 74, 4681-4684 (1977); […] et al. Proc. Natl. Acad. Sci. USA 82, 4365-4368 (1985)). Sprague-Dawley rats, 4 days old, were injected intracerebrally (in the area of the lateral ventricle) with 5 μl of 0.1 M phosphate-buffered saline (PBS) containing IGF-I, IGF-II or a synthetic peptide derivative (1.25-2.5 μg dose, with 6 animals per treatment group). After 6 hours, the brains were removed, and ornithine decarboxylase was assayed essentially as described by Lewis et al., Proc. Natl. Acad. Sci. USA 75:1021-1023 (1978).

septal cultures = assay: Number of AChE positive cells in rat septal cultures; type: cell-based; details: 100 nM IGF-I; 4×10^5 cells/cm^2, medium with 10% bovine calf serum
Method: (§1) Dissociated cell cultures of the septal region of day 17 embryonic rats were prepared by standard techniques known to those skilled in the art, using enzymatic (Dispase, Collaborative Research) dissociation of tissue. Cells were seeded (plated) at 6×10^5 cells/cm^2 in poly-1-ornithine-laminin coated plastic tissue culture wells, and cultured in serum-free N2 medium (Bottenstein et al., 1978) for 5 days without feeding. Control (uninduced) cultures received no added growth factors; induced cultures received the concentrations of IGF-I and NGF indicated in FIGS. 9 and 10 at the time of plating. NGF is commercially available. ChAT was assayed by the method described in McManaman, et al. Dev. Biol. 125:311-320 (1988). AChE staining was performed according to the method of Hartikka and Hefti, J. Neuroscience 8:2967-2985 (1988).
We have shown that under specific culture conditions (4×10^5 cells/cm^2 in the presence of medium containing 10% bovine calf serum), IGF-I increased the number of AChE positive cells by 3-4 fold over control, growth factor-free cultures, FIG. 12.

[4] = system: cultured rat septal cells; assay: ChAT activity in cultured rat septal cells; type: cell-based
Method: The effect of simultaneous administration of IGF-I and NGF on ChAT activity was assayed in cultured septal neurons. ChAT is the initial enzyme in the synthesis of the neurotransmitter, acetylcholine, and is a specific biochemical marker for cholinergic neurons. Assay of this enzyme may be used as an indication of the effects of IGF (and other factors) on the survival of cholinergic neurons and/or regulation of this enzyme. […] In FIG. 9 open squares represent IGF-I, diamonds indicate IGF-I+2 nM NGF, open circles indicate 2 nM NGF, and the horizontal line at 403 DPM represents uninduced cells. A similar additive effect was seen when saturating concentrations of IGF-I were combined with saturating or sub-maximal concentrations of NGF, as shown in FIG. 10. In FIG. 10 open squares indicate NGF, diamonds indicate NGF+25 nM IGF-I, open circles represent 25 nM IGF-I, and the horizontal line at 554 DPM represents uninduced cells.
Cultured rat septal cell experiments were performed generally as described in Hartikku and Hefti, J. Neuroscience, 8:2967-2985 […], Hayashi and Patel, Dev. Brain Res., 36:109-120 (1987), and as follows.
as §1

With “GPETLCGAELVDALQFVCGDRGFYFNKPTGYGSSS-RRAPQTGIVDECCFRSCDLRRLEMYCAPLKPAKSA [IGF-I]” the “choline acetyltransferase activity (in words)” value [1] was “substantial, dose-dependent increase in choline acetyltransferase activity”, the “PERCENT MAX. BOUND” value ([2]; peptide 4 pM, 0.01 nM 125I-[Thr59]IGF-I) was 91% and the “PERCENT MAX. BOUND” value ([2]; peptide 400 pM) was 30%. For the same substance, the “displacement of 125I-[Threonine59]IGF-I binding (in words)” value ([2]; rat brain sections) was “potently displaced”, the “brain ornithine decarboxylase activity (in words)” value [3] was “dose-dependent increase in brain ornithine decarboxylase activity” and the “increase in number of AChE positive cells over control” value (septal cultures) was 3-4 fold. For the same substance, the “ChAT activity % increase over control” value ([4]; concentration not printed (second part of table)) was 44%, the “ChAT activity % increase over control” value ([4]; single growth factor 1.3 nM) was 20% and the “ChAT activity % increase over control” value ([4]; single growth factor 12.5 nM) was 50%. The “ChAT activity % increase over control” value ([4]; single growth factor 25.0 nM) was 37%.
